Structures are written as SMILES. pIC50: −log10 of the molar value. Read-outs that look alike come from different tables or passages of the source.

Among the data in patent US20260176289A1, “SMALL MOLECULE INHIBITORS OF KRAS PROTEINS” (Merck Sharp & Dohme LLC, priority 2022, published 2026) are IC50 values, retold here.

In assay [1] the target is KRAS-WT (Homo sapiens, UniProt P01116). Put plainly: SOS-catalyzed nucleotide exchange assay (Procedure A, TR-FRET), KRAS-WT. The assay is classed as biochemical. Particulars: nucleotide exchange, read-out: KRAS WT GNE IC50. In short, it runs like this:
(§1)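 Biotinylated RAS (KRAS-G12C carries C51S/C80L/C118S; others WT background) preloaded with Bodipy-GDP plus Tb-streptavidin, preincubated with compound 60 min at RT, then human SOS and 3 mM GTP added. Final RAS/SOS: G12C 3 nM/40 nM, 60 min; WT 1 nM/40 nM, 60 min; G12V 1.25 nM/160 nM, 90 min; NRAS 1.25 nM/40 nM, 60 min. TR-FRET 520/495 ratio normalized to DMSO and saturating inhibitor; 10-point curves fit four-parameter logistic.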

Assay [2] deals with KRAS-G12C (C51S/C80L/C118S) (Homo sapiens, UniProt P01116, C118S/C51S/C80L/G12C). Put plainly: SOS-catalyzed nucleotide exchange assay (Procedure A, TR-FRET), KRAS-G12C. The assay is classed as biochemical. The conditions noted are these: nucleotide exchange, Procedure A; read-out: KRAS G12C GNE IC50. A digest of the protocol:
as §1

The target of assay [3] is KRAS-G12D (Homo sapiens, UniProt P01116, G12D). Put plainly: SOS-catalyzed nucleotide exchange assay (Procedure A, TR-FRET), KRAS-G12D. Particulars: nucleotide exchange, read-out: KRAS G12D GNE IC50. The assay is classed as biochemical. A digest of the protocol:
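Signal ratio (520/495 nm, excitation 340 nm) reports Bodipy-GDP retention on biotinylated RAS after SOS-catalyzed exchange with 3 mM GTP. SOS was 40 nM, except 160 nM for G12V. Room-temperature exchange lasted 60 min (90 min for G12V), following a 60 min compound preincubation.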
(Time-resolved FRET reads energy transfer from a long-lived donor to a nearby acceptor.)

In assay [4] the target is KRAS-G12V (Homo sapiens, UniProt P01116, G12V). Put plainly: SOS-catalyzed nucleotide exchange assay (Procedure A, TR-FRET), KRAS-G12V. The class given is biochemical. The conditions noted are these: nucleotide exchange, read-out: KRAS G12V GNE IC50. A digest of the protocol: as §1
The target in assay [5] is KRAS-G13D (Homo sapiens, UniProt P01116, G13D). Kind of assay: SOS-catalyzed nucleotide exchange assay (Procedure A, TR-FRET), KRAS-G13D. The assay is classed as biochemical. The conditions noted are these: nucleotide exchange, Procedure A; read-out: KRAS G13D GNE IC50.
Assay [6] concerns MKN-1 cells. Kind of assay: Cellular phospho-ERK assay, MKN-1 cells (amplified wild-type KRAS). The assay is classed as cell-based. The conditions noted are these: Homo sapiens, read-out: MKN1 pERK IC50. A digest of the protocol: (§2)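 ERK phosphorylation relative to total ERK is the endpoint, detected by AlphaScreen-based SureFire multiplex following a 2-hour treatment at 37 °C. Compounds are titrated 1:3 over ten points from 30 μM.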

The subject of assay [7] is PANC08.13 cells. Put plainly: Cellular phospho-ERK assay, PANC08.13 cells (homozygous KRAS-G12D). The assay is classed as cell-based. Particulars: Homo sapiens, read-out: PANC-08.13 pERK IC50. In short, it runs like this: as §2
Assay [8] relates to SW620 cells. Kind of assay: Cellular phospho-ERK assay, SW620 cells (homozygous KRAS-G12V). The assay is classed as cell-based. Particulars: Homo sapiens, read-out: SW620 pERK IC50. In short, it runs like this: as §2
Assay [9] deals with AsPC-1 cells. Put plainly: Cellular phospho-ERK assay, AsPC-1 cells (homozygous KRAS-G12D). The assay is classed as cell-based. The conditions noted are these: Homo sapiens, ASPC1, 2 h, read-out: AsPC1 pERK IC50. In short, it runs like this:
as §2

The mark [10] stands for this setting: amplified wild-type KRAS, 2 hours.

Chain of KRAS-G12V (P01116 with tags, fused parts or gaps isoform P01116-2 G12V): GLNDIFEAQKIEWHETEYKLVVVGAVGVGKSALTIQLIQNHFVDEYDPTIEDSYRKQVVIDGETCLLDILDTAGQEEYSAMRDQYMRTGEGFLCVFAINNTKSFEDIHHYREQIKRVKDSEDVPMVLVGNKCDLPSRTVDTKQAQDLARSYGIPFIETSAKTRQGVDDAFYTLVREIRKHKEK
Chain of KRAS-WT (P01116 with tags, fused parts or gaps isoform P01116-2): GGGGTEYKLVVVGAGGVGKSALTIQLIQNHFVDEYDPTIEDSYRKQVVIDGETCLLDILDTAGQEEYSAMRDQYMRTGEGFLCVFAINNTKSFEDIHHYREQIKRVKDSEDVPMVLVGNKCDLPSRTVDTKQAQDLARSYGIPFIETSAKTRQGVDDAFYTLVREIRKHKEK
Chain of KRAS-G13D (P01116 with tags, fused parts or gaps isoform P01116-2 G13D): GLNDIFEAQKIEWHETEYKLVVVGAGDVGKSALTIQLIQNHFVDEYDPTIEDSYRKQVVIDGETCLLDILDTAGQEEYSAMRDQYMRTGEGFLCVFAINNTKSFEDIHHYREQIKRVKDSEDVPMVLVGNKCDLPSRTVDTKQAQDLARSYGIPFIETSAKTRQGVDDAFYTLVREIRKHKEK
Chain of KRAS-G12D (P01116 with tags, fused parts or gaps isoform P01116-2 G12D): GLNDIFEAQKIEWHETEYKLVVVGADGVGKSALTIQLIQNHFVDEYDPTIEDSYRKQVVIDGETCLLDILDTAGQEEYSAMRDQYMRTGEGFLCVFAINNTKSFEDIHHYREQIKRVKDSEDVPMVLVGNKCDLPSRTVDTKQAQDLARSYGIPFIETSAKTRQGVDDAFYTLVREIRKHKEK
Chain of KRAS-G12C (C51S/C80L/C118S) (P01116 with tags, fused parts or gaps isoform P01116-2 G12C/C51S/C80L/C118S): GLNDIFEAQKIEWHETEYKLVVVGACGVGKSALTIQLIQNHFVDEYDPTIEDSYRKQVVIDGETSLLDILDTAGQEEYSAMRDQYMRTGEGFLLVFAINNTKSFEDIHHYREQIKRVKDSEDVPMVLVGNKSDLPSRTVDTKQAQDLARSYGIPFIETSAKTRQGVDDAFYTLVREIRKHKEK

On to `Cn1c2nc(OC[C@@]34CCCN3C[C@H](F)C4)nc(N3CCOC[C@@](C)(O)C3)c2c2ccnc(-c3ccc(F)c4sc(N)c(C#N)c34)c21` [Ex-16, 2-amino-7-fluoro-4-(2-(((2R,7aS)-2-fluorotetrahydro-1H-pyrrolizin-7a(5H)-yl)methoxy)-4-((S)-6-hydroxy-6-methyl-1,4-oxazepan-4-yl)-9-methyl-9H-pyrido[4′,3′:4,5]pyrrolo[2,3-d]pyrimidin-8-yl)benzo[b]thiophene-3-carbonitrile], for which the pIC50 in [1] is 6.12; in assay [2] it was 5.88; in assay [3], 6.02; in [4], 6.25; in [5] it was 6.50; in [6] (setting [10]) it was 5.75. The negative-log IC50 (pIC50) was 5.26 in assay [7] (PANC-08-13, KRAS-G12D, 2 hours) and 5.07 in assay [8] (SW-620, KRAS-G12V, 2 hours).
With `C=C(C)c1c(C)cc2[nH]ncc2c1-c1nccc2c1sc1nc(OC[C@@]34CCCN3C[C@H](F)C4)nc(N3CCOC[C@@](C)(O)C3)c12` [Ex-136, (6S)-4-(2-(((2R, 7aS)-2-fluorotetra-hydro-1H-pyrrol-izin-7a(5H)-yl)meth-oxy)-8-(6-methyl-5-(prop-1-en-2-yl)-1H-indazol-4-yl)pyr-ido[4′,3′:4,5]thieno [2,3-d]pyrimidin-4-yl)-6-methyl-1,4-oxazepan-6-ol], the pIC50 in [1] was 7.22; in assay [2], 7.41; in assay [3], 7.67; in assay [4], 7.39; in assay [5], 7.61; in assay [6] (2 hours compound incubation), 6.93. Besides, the negative logarithm of the IC50 (pIC50) was 7.23 in [7] (PANC-08-13, 2 hours compound incubation); 6.88 in assay [9] (2 hours compound incubation); 6.60 in assay [8] (SW-620, 2 hours compound incubation).
Consider `C[C@@]1(O)COCCN(c2nc(OC[C@@]34CCCN3C[C@H](F)C4)nc3sc4c(-c5c(C(F)(F)F)c(Cl)cc6[nH]ncc56)nccc4c23)C1` [Ex-40, (6S)-4-(8-(6-chloro-5-(trifluoromethyl)-1H-indazol-4-yl)-2-(((2R,7aS)-2-fluorotetrahydro-1H-pyrrolizin-7a(5H)-yl)methoxy)pyrido[4′,3′:4,5]thi-eno[2,3-d]pyrimidin-4-yl)-6-methyl-1,4-oxazepan-6-ol], for which the pIC50 in assay [1] is 6.86; in [2], 7.46; in assay [3], 7.21; in assay [4], 7.08; in [5] it was 7.28; in assay [6] (setting [10]) it was 6.80. For the same compound, the pIC50 in assay [7] (PANC-08-13, KRAS-G12D, 2 hours) is 6.94; in assay [9] (KRAS-G12D, 2 hours) it was 6.53; in assay [8] (SW-620, KRAS-G12V, 2 hours) it was 6.90.
As to `C#Cc1c(C)cc2[nH]ncc2c1-c1nccc2c3c(N4CCOC[C@@](C)(O)C4)nc(OC[C@@]45CCCN4C[C@H](F)C5)nc3n(C)c12` (single isomer, unassigned) [Ex-7], the pIC50 in assay [1] was 7.37; in assay [2], 6.89; in assay [3], 7.65; in assay [4], 7.52; in assay [5], 7.64; in assay [6] (setting [10]), 6.85. Also, the pIC50 was 7.00 in assay [7] (PANC-08-13, KRAS-G12D, 2 hours); 6.61 in [9] (KRAS-G12D, 2 hours); 6.63 in [8] (SW-620, KRAS-G12V, 2 hours).
With `Cc1cc2[nH]ncc2c(-c2nccc3c4c(N5CCC[C@@](C)(O)C5)nc(OC[C@]5(CN(C)C)CC5(F)F)nc4n(C)c23)c1C(F)(F)F` [Ex-6, (3R)-1-(2-(((R)-1-((dimethylamino)methyl)-2,2-difluorocyclopropyl)methoxy)-9-methyl-8-(6-methyl-5-(trifluoromethyl)-1H-indazol-4-yl)-9H-pyrido[4′,3′:4,5]pyrrolo[2,3-d]pyrimidin-4-yl)-3-methylpiperidin-3-ol], the negative logarithm of the IC50 (pIC50) was 6.66 in assay [1]; 6.98 in [2]; 7.01 in assay [3]; 6.89 in assay [4]; 7.31 in assay [5]; 6.52 in assay [6] (setting [10]). Moreover, the pIC50 in [7] (PANC-08-13, KRAS-G12D, 2 hours) is 6.73; in [9] (KRAS-G12D, 2 hours), 6.34; in assay [8] (SW-620, KRAS-G12V, 2 hours) it was 6.54.
Consider `C#Cc1c(C)cc2[nH]ncc2c1-c1nccc2c1sc1nc(OC[C@@]34CCCN3C[C@H](F)C4)nc(N3CCOC[C@@](C)(O)C3)c12` [Ex-33, (6S)-4-(8-(5-ethynyl-6-methyl-1H-indazol-4-yl)-2-(((2R,7aS)-2-fluorotetrahydro-1H-pyrrolizin-7a(5H)-yl)methoxy)pyrido[4′,3′:4,5]thieno[2,3-d]pyrimidin-4-yl)-6-methyl-1,4-oxazepan-6-ol], for which the pIC50 in assay [1] was 7.45; in [2], 7.45; in [3], 7.87; in [4], 7.54; in [5], 7.71; in assay [6] (setting [10]), 7.28. Moreover, the pIC50 in assay [7] (PANC-08-13, KRAS-G12D, 2 hours) was 7.22; in [8] (SW-620, KRAS-G12V, 2 hours) it was 6.90.
`CCOc1c(C)cc2[nH]ncc2c1-c1nccc2c1sc1nc(OC[C@@]34CCCN3C[C@H](F)C4)nc(N3CCOC[C@@](C)(O)C3)c12` [Ex-38, (6S)-4-(8-(5-ethoxy-6-methyl-1H-indazol-4-yl)-2-(((2R,7aS)-2-fluorotetrahydro-1H-pyrrolizin-7a(5H)-yl)methoxy)pyrido[4′,3′:4,5]thieno[2,3-d]pyrimidin-4-yl)-6-methyl-1,4-oxazepan-6-ol]: the pIC50 in assay [1] was 6.62; in assay [2], 7.44; in assay [3] it was 7.01; in assay [4], 6.73; in assay [5], 6.91; in assay [6] (setting [10]), 6.71. Also, the pIC50 in assay [7] (PANC-08-13, KRAS-G12D, 2 hours) was 6.91; in assay [9] (KRAS-G12D, 2 hours), 6.40; in [8] (SW-620, KRAS-G12V, 2 hours), 6.56.
In the case of `COc1cc2c3c(N4CCOC[C@@](C)(O)C4)nc(OC[C@@]45CCCN4C[C@H](F)C5)nc3n(C)c2c(-c2c(C(F)(F)F)c(C)cc3[nH]ncc23)n1` [Ex-26, (6S)-4-(2-(((2R,7aS)-2-fluorotetrahydro-1H-pyrrolizin-7a(5H)-yl)methoxy)-6-methoxy-9-methyl-8-(6-methyl-5-(trifluoromethyl)-1H-indazol-4-yl)-9H-pyrido[4′,3′:4,5]pyrrolo[2,3-d]pyrimidin-4-yl)-6-methyl-1,4-oxazepan-6-ol], the pIC50 in assay [1] was 6.72; in [2], 6.68; in assay [3], 7.02; in [4], 7.02; in assay [5] it was 7.03; in [6] (setting [10]) it was 6.49. Also, the pIC50 in assay [7] (PANC-08-13, KRAS-G12D, 2 hours) is 6.77; in assay [8] (SW-620, KRAS-G12V, 2 hours) it was 6.15.
Regarding `C#Cc1cccc2cccc(-c3nccc4c3sc3nc(OC[C@@]56CCCN5C[C@H](F)C6)nc(N5CCOC[C@@](C)(O)C5)c34)c12` [Ex-127, (S)-4-(8-(8-ethynyl-naphthalen-1-yl)-2-(((2R,7aS)-2-fluoro-tetrahydro-1H-pyr-rolizin-7a(5H)-yl)-methoxy)pyrido[4′, 3′:4,5]thieno[2,3-d]pyrimidin-4-yl)-6-methyl-1,4-oxaze-pan-6-ol], the pIC50 in assay [1] was 6.63; in [2], 7.04; in [3], 6.99; in [4], 6.92; in [5], 6.54; in assay [6] (setting [10]) it was 6.29. The pIC50 in assay [7] (PANC-08-13, KRAS-G12D, 2 hours) was 6.45; in assay [8] (SW-620, KRAS-G12V, 2 hours), 6.32.
For `Cc1cc2[nH]ncc2c(-c2nccc3c2sc2nc(OC[C@@]45CCCN4C[C@H](F)C5)nc(N4CCOC[C@@](C)(O)C4)c23)c1Cl` [Ex-32, (6S)-4-(8-(5-chloro-6-methyl-1H-indazol-4-yl)-2-(((2R,7aS)-2-fluorotetrahydro-1H-pyrrolizin-7a(5H)-yl)methoxy)pyrido[4′,3′:4,5]thieno[2,3-d]pyrimidin-4-yl)-6-methyl-1,4-oxazepan-6-ol], the pIC50 in [1] is 6.69; in [2], 7.04; in assay [3], 7.00; in [4] it was 6.67; in [5] it was 6.96; in assay [6] (setting [10]), 6.56. Also, the pIC50 was 6.76 in assay [7] (PANC-08-13, KRAS-G12D, 2 hours) and 6.65 in assay [8] (SW-620, KRAS-G12V, 2 hours).

The pIC50 is −log10 of the IC50, conventionally taken in molar units.
